From ChEMBL document CHEMBL5505977, “Discovery of novel pyrrolo[2,3-d]pyrimidines as potent menin-mixed lineage leukemia interaction inhibitors” (Eur J Med Chem, 2024)

What was measured:
[1] = system: MV4-11; assay: cells; details: Homo sapiens, MV4-11, 72 h
Description: Antiproliferative activity against human MV4-11 cells incubated for 72 hrs by MTT assay

[2] = system: HL-60; assay: Antiproliferative activity against human HL-60 cells incubated for 72 hrs by MTT assay; type: functional, cell-based; details: HL-60, 72 h
[3] = biological target: T1, Menin (Homo sapiens, UniProt O00255); assay: Binding affinity to menin (unknown origin) incubated for 1 hr by fluorescence polarization assay
T1 sequence (O00255 whole entry): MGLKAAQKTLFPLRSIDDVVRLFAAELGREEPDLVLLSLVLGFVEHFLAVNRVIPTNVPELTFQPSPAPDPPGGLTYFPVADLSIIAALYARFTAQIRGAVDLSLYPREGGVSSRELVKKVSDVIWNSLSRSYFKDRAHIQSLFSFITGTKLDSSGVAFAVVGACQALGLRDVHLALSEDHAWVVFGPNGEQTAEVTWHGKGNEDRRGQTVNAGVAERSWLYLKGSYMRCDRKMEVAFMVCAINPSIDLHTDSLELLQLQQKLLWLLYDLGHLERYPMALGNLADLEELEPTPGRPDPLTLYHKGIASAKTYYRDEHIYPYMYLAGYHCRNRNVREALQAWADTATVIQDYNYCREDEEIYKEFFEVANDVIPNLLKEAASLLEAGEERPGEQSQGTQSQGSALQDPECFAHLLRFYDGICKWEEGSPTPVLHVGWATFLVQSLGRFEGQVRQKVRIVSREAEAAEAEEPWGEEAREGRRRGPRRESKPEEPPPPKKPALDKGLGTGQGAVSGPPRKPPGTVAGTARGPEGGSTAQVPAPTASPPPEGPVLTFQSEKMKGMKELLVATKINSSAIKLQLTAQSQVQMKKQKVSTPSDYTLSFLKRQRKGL

[4] = biological target: Menin/Histone-lysine N-methyltransferase MLL (Homo sapiens, UniProt O00255); assay: Inhibition of human menin-MLL (unknown origin) protein-protein interaction by fluorescence polarization assay
Chain of Menin/Histone-lysine N-methyltransferase MLL (Q03164 1-2718 partner limits assumed, one chain of several): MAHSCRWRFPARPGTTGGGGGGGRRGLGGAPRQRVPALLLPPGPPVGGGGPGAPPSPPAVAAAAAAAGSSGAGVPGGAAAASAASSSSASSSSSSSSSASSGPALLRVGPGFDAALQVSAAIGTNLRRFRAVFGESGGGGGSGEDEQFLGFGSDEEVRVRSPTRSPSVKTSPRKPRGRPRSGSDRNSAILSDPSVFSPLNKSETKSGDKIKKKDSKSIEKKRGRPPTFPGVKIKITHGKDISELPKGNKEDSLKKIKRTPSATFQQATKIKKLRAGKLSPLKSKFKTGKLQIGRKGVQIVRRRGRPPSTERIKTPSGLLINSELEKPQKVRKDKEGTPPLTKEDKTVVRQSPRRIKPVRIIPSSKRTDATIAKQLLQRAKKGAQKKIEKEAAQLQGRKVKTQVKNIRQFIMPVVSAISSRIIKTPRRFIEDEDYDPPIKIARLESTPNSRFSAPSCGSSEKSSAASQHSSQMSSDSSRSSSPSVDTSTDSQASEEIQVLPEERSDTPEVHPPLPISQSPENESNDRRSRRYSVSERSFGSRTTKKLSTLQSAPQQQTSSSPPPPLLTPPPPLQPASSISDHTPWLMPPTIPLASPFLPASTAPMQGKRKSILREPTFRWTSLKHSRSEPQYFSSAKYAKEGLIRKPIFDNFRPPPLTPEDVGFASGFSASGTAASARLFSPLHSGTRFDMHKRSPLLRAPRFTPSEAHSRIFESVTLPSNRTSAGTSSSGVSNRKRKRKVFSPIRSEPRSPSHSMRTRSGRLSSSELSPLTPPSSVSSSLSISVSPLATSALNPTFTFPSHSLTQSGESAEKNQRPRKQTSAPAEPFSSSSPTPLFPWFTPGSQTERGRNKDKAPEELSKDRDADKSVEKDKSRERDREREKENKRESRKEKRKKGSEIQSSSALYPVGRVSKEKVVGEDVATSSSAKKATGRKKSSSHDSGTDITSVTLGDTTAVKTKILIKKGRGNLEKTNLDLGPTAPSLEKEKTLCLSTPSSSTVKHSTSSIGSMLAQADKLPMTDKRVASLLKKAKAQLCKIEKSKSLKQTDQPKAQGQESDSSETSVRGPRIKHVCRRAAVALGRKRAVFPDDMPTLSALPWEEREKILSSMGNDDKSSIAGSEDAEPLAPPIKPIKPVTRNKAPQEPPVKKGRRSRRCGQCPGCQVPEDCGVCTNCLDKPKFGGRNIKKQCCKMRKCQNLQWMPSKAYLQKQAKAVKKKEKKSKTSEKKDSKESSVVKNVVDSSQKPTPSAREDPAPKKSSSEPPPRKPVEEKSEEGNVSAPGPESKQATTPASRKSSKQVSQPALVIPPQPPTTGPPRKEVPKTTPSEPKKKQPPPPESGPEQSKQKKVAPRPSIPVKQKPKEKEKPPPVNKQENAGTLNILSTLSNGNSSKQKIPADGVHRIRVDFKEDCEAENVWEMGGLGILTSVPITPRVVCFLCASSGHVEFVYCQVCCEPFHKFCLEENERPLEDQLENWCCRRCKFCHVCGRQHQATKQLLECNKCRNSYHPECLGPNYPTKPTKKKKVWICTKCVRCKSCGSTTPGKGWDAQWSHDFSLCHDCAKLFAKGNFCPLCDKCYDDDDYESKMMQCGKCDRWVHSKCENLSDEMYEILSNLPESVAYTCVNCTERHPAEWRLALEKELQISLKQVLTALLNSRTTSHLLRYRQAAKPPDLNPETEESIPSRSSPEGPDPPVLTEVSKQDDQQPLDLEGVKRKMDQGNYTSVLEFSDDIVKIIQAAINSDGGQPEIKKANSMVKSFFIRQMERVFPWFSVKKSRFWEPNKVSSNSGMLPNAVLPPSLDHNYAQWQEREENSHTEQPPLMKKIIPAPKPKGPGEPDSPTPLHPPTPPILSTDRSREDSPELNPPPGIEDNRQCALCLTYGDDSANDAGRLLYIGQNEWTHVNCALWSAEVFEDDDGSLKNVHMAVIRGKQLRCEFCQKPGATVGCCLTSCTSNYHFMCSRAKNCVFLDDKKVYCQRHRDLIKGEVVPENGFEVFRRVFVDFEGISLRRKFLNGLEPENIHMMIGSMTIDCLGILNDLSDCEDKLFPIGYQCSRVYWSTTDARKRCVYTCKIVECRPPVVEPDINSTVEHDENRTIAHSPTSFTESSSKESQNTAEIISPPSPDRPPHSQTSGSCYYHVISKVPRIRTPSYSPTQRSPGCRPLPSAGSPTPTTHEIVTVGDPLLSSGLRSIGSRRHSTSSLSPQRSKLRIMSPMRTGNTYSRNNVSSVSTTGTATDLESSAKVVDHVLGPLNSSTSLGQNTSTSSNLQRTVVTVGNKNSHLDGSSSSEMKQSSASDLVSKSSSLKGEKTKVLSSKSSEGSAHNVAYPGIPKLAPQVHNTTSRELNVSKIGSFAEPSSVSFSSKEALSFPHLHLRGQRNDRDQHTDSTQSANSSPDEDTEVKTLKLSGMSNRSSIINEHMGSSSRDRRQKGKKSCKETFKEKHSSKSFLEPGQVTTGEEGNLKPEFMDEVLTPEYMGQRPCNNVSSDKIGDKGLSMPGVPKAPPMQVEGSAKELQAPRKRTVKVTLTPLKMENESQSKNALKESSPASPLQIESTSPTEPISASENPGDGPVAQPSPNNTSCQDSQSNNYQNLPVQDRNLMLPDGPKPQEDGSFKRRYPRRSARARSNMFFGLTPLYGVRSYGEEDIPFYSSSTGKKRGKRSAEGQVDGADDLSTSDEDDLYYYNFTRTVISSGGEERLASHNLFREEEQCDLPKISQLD
Chain of Menin/Histone-lysine N-methyltransferase MLL (Q03164 2719-3969 partner limits assumed, one chain of several): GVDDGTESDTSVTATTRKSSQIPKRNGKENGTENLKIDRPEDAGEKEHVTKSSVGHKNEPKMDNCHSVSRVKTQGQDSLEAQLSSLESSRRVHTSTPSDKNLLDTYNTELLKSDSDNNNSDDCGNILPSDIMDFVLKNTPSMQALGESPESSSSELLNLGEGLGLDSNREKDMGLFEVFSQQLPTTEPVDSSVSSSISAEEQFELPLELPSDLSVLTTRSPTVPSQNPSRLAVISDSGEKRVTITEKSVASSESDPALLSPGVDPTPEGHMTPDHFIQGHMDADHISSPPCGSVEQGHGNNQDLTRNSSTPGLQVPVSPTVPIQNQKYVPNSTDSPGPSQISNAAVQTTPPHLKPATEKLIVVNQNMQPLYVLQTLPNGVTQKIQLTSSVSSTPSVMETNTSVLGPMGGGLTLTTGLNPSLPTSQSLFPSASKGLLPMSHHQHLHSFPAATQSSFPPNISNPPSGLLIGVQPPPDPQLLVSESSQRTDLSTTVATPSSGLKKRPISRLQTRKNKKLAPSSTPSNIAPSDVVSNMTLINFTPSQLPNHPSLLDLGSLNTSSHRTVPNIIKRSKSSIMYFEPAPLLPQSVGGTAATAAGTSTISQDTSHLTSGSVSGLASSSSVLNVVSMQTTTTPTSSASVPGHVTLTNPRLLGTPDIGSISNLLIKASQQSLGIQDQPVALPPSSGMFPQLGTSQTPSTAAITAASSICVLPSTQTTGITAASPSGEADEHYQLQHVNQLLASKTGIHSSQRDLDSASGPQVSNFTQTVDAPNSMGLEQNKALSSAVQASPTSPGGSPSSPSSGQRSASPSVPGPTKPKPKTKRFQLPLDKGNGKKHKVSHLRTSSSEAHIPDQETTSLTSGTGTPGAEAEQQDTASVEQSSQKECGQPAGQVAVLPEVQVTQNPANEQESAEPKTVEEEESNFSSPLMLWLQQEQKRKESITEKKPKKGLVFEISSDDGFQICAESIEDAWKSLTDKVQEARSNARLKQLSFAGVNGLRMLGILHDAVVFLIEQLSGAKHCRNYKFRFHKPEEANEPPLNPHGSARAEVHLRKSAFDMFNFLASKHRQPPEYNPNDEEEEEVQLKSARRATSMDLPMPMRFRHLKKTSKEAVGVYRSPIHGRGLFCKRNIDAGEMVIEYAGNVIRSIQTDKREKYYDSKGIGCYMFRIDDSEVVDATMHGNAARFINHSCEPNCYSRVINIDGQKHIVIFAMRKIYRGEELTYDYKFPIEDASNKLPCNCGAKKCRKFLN

IC50 [1] | IC50 [2] | IC50 [3] | IC50 [4] | SMILES
> 10000 nM | > 10000 nM | > 10000 nM | – | CN1CCN(c2ncnc3c2ccn3C2CCN(CC3CN(c4ccc(C#N)cc4)C3)CC2)CC1
> 10000 nM | > 10000 nM | > 10000 nM | – | N#Cc1ccc(N2CC(CN3CCC(n4ccc5cncnc54)CC3)C2)cc1
1290 nM | > 10000 nM | 450 nM | – | CCS(=O)(=O)c1ccc(N2CC(CN3CCC(n4cc(-c5ccc(F)cc5)c5c(N)ncnc54)CC3)C2)cc1
2000 nM | > 10000 nM | 250 nM | – | Nc1ncnc2c1c(-c1ccc(F)cc1)cn2C1CCN(CC2CN(c3ccc(S(=O)(=O)C4CCCCC4)cc3)C2)CC1
> 10000 nM | > 10000 nM | > 10000 nM | – | CN(C)CCOc1ncnc2c1ccn2C1CCN(CC2CN(c3ccc(C#N)cc3)C2)CC1
2050 nM | > 10000 nM | 730 nM | – | CS(=O)(=O)c1ccc(N2CC(CN3CCC(n4cc(-c5ccc(F)cc5)c5c(N)ncnc54)CC3)C2)cc1
1260 nM | 7500 nM | 470 nM | – | Nc1ncnc2c1c(-c1ccc(F)cc1)cn2C1CCN(CC2CN(c3ccc(S(=O)(=O)C4CC4)cc3)C2)CC1
– | – | – | 0.51 nM | CNc1nc(NC2CCN(Cc3ccc4c(cc(C#N)n4CC45CC(NC=O)(C4)C5)c3C)CC2)c2cc(CC(F)(F)F)sc2n1
5200 nM | > 10000 nM | 1470 nM | – | N#Cc1ccc(N2CC(CN3CCC(n4ccc5c(N)ncnc54)CC3)C2)cc1
